# From patent US20050100903A1, “Screening method” (priority 2001, published 2005)
# Tests used:
# [1] = system: CEACAM-1 expression in HT29 cells; experiment: Western Blot of CEACAM expression in HT29 colon carcinoma cells; assay type: cell-based, human; conditions: HT29, 10 ng/ml, 6 hours
# Procedure: HT29 colon carcinoma cells were incubated for 6 hours with TNF-α (10 ng/ml). The cells were examined microscopically for vitality, then lysed, their total protein isolated and separated electrophoretically. 8 μg protein was separated per lane. An anti-CEA antibody and an anti-mouse-HRP-coupled secondary antibody (Dianova, Hamburg, Germany) were used for detection. A cross-reacting anti-CEA antibody was chosen to investigate the selectivity of candidate substances for the expression of individual antigens. The selectivity of the substance effects is important since CEACAM-1 and CEACAM-7/CEA and CEACAM-6 can have antagonistic effects on apoptosis.
# The proportionality of expression of individual CEACAMs can be quantified in Western Blot after densitometric evaluation (e.g., public domain NIH software IMAGE 1.6.1). The antigens are identified in the Western Blot through assignment to relative molar mass. The molecular size of the individual CEACAMs is described in the literature. The Western Blot was normalized with β-actin (Sigma-Aldrich, Taufkirchen, Germany). This blot (FIG. 6) was subsequently evaluated densitometrically using the NIH Image Software 1.6.1.
# 200 nM wortmannin (Calbiochem-Novabiochem, Nottingham, UK) was incubated with 1×10^6 cells/well (6-well plate) for 3, 8 or 24 hours. […]
# HT29 cells = experiment: Apoptosis in HT29 cells with or without γ-interferon stimulation, with antibody cross-linking; assay type: cell-based, human; conditions: addition over a short period (500 U/ml, 6 hours)
# Procedure: HT29 cells were treated for 6 hours with 500 U/ml γ-interferon. The procedure was also run without interferon stimulation. After change of medium, the cells were treated with primary antibodies as in Example 4. These were: mAb 4D1C2 (anti-CEACAM-1 at 4 μg/ml) or irrelevant mAb 7D11 (anti-β-catenin at 1 μg/ml). A test run without antibody was used as a second negative control.
# After medium change, secondary antibody (anti-mouse at 15 μg/ml) was added. After a total experiment duration of 80-96 hours, the level of apoptosis was determined using standard propidium iodide staining or the apoptosis ELISA of ROCHE Molecule Systems, strictly in accordance with the instructions of the manufacturer. All experiments were performed in triplicate and repeated 3× independently. The Wilcoxon signed ranks test was used to assess the significance of the data.
Substance,Influence on other proteins of the CEACAM family [1],Upregulation of CEACAM-1 compared to the untreated sample ([1]; densitometry of Western Blot normalized with β-actin),CEACAM-1 production in HT29 cells (HT29 cells)
TNF-α,without influencing,approximately 2 fold,–
"gamma-interferon: gamma-interferon, stimulates HT29 cells to produce CEACAM-1",–,–,stimulates
